Where two headings read alike, the source gives them in different places.

Data set [1] is described as follows: Equilibrium solubility of peramivir in saline solutions of different pH. More on the design: unit not given here. The data set is classed as physicochemical. To be noted: 25° C. The protocol: An excess amount of bulk peramivir was drawn and placed into a 25 ml volumetric flask, and 0.7% salt solution was applied to bring the volume to scale; the diluted solution was placed on a shaker and shaken for 24 h (25° C., 75 rpm), and then dilute hydrochloric acid (5%, V/V) was applied to regulate the pH to 4, 4.5, 5.0, and 5.5, respectively; the pH-regulated solutions were placed for another 48 h, and then filtered with a 0.45 μm filter membrane; the filtrates were diluted 250-fold with deionized water; the peramivir contents in the samples were determined by the HPLC method in peramivir standard.

For data set [2] the following is noted: at respective timing.
Procedure: Experiment Method: 15 SD male rats were drawn to be randomly assigned into 3 groups, 5 rats in each group, and peramivir sodium chloride injection (Lot No.: 3139262, Guangzhou Nanxin Pharmaceutical Co., Ltd.) was administered via intravenous injection at a dose of 10 mg/kg. 0.20 ml blood was collected from orbital venous plexus at 5 min, 1 h, and 3 h after dosing to the rats, respectively; and then the rats were lethally anesthetized to harvest the lung tissues (including trachea). After being anticoagulated by heparin sodium, the whole blood was centrifuged (1000 rpm, 5 min) to harvest the plasma; the lung tissues were rinsed and weighed; the plasma and lung tissues were placed under −20° C. until used for testing.
The rats were lethally anesthetized at 5 min, 1 h, and 3 h after administration, respectively, with their weights weighed and recorded; then, they were exercised to remove lung tissues (including trachea); the lung tissues were rinsed with saline solution; the residual liquid was sucked dry with filter paper; the lung tissues with the residual liquid were placed in an EP tube, weighed with deduction of the weight of the EP tube the weighed weight was recorded; finally, the lung tissues were placed in a −20° C. refrigerator for storage. […]
Peramivir standard solutions with concentrations of 0.5, 1, 5, 10, 50, 100, 200 μg/mL, respectively, were formulated using 1 mg/mL mother solution according to the gradient dilution method. […] The intra-day lung tissue drug concentrations were calculated according to standard protocol. […]
The conditions of data set [3]: cited from earlier work.

`CCC(CC)[C@H](NC(C)=O)[C@@H]1[C@H](O)[C@@H](C(=O)O)C[C@H]1NC(=N)N` [Peramivir, (−)-(1S, 2S, 3R, 4R)-2-hydroxy-3-[(1S)-1-acetamido-2-ethyl]butyl-4-guanidinocyclopenta-1-carbo xylic acid]: the “Equilibrium Solubility of Peramivir in Saline Solutions” value came out at 33.93 ± 0.51 in data set [1] (pH = 4.0, 0.7% salt solution); 26.53 ± 0.14 in data set [1] (pH = 4.5, 0.7% salt solution); 22.84 ± 0.39 in data set [1] (pH = 5.0, 0.7% salt solution); 22.04 ± 0.21 in data set [1] (pH = 5.5, 0.7% salt solution); 21.48 ± 0.31 in data set [1] (pH was not regulated with 0.7% salt solution (pH = 6.86)). In addition, the entries for the “lung tissue concentration, aerosol inhalation relative to intravenous administration” value in data set [2] (aerosol 10 mg/kg vs intravenous 10 mg/kg), in data set [2] (aerosol low dose 2.5 mg/kg vs intravenous 10 mg/kg) and in data set [2] (aerosol medium dose 5 mg/kg vs intravenous 10 mg/kg) were 2.02˜41.58 times, 1.07˜4.58 times and 1.58˜5.31 times, respectively. In addition, the “stability of peramivir APIs” value in data set [3] (48 h at 100° C.) is on record as “stable”; in data set [3] (acidic conditions), “unstable”; in data set [3] (alkaline and neutral environments) it was “good stability”; in data set [3] (light irradiation for 10 days) it was “good stability”.

These data come from patent US12226384B2, “Peramivir solution type inhalant and preparation method therefor” (priority 2019, dated 2025).
